The target of data set [1] is Phosphatidylinositol 4,5-bisphosphate 3-kinase catalytic subunit alpha isoform (Homo sapiens, UniProt P42336). Description: Inhibition of PI3Kalpha (unknown origin) using PIP2/PS as substrate preincubated for 15 mins before substrate addition by luciferase-based luminescence assay.
Data set [2] deals with Serine/threonine-protein kinase mTOR (Homo sapiens, UniProt P42345). Description: Inhibition of mTOR (unknown origin) assessed as inhibition of 4EBP-1 phosphorylation preincubated for 15 mins before substrate addition by TR-FRET assay.
Data set [3] in a line: Apparent permeability from apical to basolateral side of human Caco2 cells at 10 uM after 90 mins by LC/MS/MS analysis. The class given is ADME, cell-based. Conditions: Caco-2.
Data set [4] can be described thus: Antiproliferative activity against human U87MG cells after 4 days by CellTiter-Glo assay. The following applies: U-87 MG, 96 h.
Data set [5] in a line: Antiproliferative activity against human SKOV3 cells after 3 days by CellTiter-Glo assay. The following applies: SK-OV-3, 72 h.
Data set [6] in a line: Apparent permeability from basolateral to apical side of human Caco2 cells at 10 uM after 90 mins by LC/MS/MS analysis. The data set is classed as ADME, cell-based. Conditions: Caco-2.
Data set [7] in a line: Efflux ratio of apparent permeability from basolateral to apical side to apical to basolateral of human Caco2 cells. The data set is classed as ADME, cell-based. The following applies: Caco-2.

Molecules are shown by their SMILES. Some results are limits rather than exact numbers.

Chain of Phosphatidylinositol 4,5-bisphosphate 3-kinase catalytic subunit alpha isoform (P42336 whole entry, canonical isoform): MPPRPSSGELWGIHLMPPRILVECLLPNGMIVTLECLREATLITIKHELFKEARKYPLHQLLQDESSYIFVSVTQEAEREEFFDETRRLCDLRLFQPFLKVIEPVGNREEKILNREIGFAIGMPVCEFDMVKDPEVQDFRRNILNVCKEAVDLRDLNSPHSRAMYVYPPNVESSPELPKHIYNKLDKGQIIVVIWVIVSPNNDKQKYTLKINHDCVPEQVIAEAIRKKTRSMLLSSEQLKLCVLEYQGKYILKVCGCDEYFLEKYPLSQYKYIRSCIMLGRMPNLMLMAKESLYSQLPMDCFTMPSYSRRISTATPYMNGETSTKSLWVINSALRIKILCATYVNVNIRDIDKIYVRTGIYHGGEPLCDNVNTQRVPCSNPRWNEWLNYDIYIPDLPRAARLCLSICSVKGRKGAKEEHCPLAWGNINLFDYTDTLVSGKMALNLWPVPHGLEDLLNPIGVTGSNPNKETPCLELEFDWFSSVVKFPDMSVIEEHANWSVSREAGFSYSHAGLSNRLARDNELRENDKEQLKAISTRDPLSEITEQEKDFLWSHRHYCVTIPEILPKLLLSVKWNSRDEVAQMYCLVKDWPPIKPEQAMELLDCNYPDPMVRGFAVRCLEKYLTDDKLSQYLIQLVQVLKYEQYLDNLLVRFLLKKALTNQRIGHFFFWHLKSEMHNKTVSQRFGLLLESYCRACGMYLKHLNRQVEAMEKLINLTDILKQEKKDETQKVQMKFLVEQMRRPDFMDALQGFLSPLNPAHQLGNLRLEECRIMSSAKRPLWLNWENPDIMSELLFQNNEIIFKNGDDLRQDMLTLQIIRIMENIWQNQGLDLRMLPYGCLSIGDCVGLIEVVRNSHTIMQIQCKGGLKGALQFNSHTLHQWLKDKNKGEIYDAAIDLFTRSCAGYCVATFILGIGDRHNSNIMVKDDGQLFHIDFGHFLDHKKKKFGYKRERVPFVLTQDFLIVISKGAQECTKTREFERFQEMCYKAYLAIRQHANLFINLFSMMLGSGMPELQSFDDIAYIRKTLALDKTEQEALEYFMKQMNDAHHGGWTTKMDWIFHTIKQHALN

For the compound `COc1ncc(-c2cnc3nc(N)nc(C)c3c2)cc1N`, the concentration for half-maximal inhibition (IC50) in data set [1] is 632 nM.
Turning to `COc1ccc(S(=O)(=O)Nc2cc(-c3cnc4nc(N)nc(C)c4c3)cnc2OC)cc1`, the values for the IC50 in data set [1] and in data set [2] were 67 nM and 180 nM, respectively.
On the same counts, the results for `COc1ncc(-c2cnc3nc(N)nc(C)c3c2)cc1NS(=O)(=O)c1ccc(Cl)s1` are 6.87 nM and 37.6 nM.
Take `COc1ccc(-c2cc3c(C)nc(N)nc3n([C@H]3CC[C@H](OCCO)CC3)c2=O)cn1` [PF-04691502]: the apical-to-basolateral permeability (Papp A→B) at 1.5 h, 10 µM in data set [3] was found to be 25.7 ×10⁻⁶ cm/s. Besides, the IC50 in data set [4] amounted to 520 nM; in data set [5], 290 nM. Also, in data set [6], the Papp B→A at 1.5 h, 10 µM was found to be 32.5 ×10⁻⁶ cm/s.
As for `Cc1nc(N)nc2ncc(-c3cnc4[nH]ccc4c3)cc12`, the IC50 in data set [1] amounted to 38 nM.
For the compound `COc1ncc(-c2cnc3nc(N)nc(C)c3c2)cc1NS(=O)(=O)c1cccnc1`, the IC50 in data set [1] worked out at 7.82 nM; in data set [2], 111 nM.
Regarding `COc1ncc(-c2cnc3nc(N)nc(C)c3c2)cc1NS(=O)(=O)c1cccs1`, the 50% inhibitory concentration (IC50) in data set [1] was determined as 23.3 nM; in data set [2] it was 245 nM.
Turning to `COc1ncc(-c2cnc3nc(N)nc(C)c3c2)cc1NS(=O)(=O)c1ccccc1`, the IC50 was found to be 63.1 nM in data set [1] and 79.2 nM in data set [2].
Regarding `COc1ncc(-c2cnc3nc(N)nc(C)c3c2)cc1NC(=O)Nc1ccc(F)cc1F`, the IC50 in data set [1] is > 1000 nM.
The same measure, in the same setting: the same measure for `COc1ncc(-c2cnc3nc(N)nc(C)c3c2)cc1NS(=O)(=O)C1CC1`: 55.6 nM.
On the same count and under the same terms, to `COc1ncc(-c2cnc3nc(N)nc(C)c3c2)cc1NC(=O)C(F)(F)F` belongs > 1000 nM; to `CCCCS(=O)(=O)Nc1cc(-c2cnc3nc(N)nc(C)c3c2)cnc1OC`, 47.5 nM; to `Cc1nc(N)nc2ncc(-c3cnc4[nH]nc(NS(=O)(=O)c5ccc(F)cc5F)c4c3)cc12`, 82.4 nM.
In the case of `Cc1nc(N)nc2ncc(-c3cnc4[nH]cc(NS(=O)(=O)c5ccc(F)cc5F)c4c3)cc12`, the IC50 in data set [1] came to 76.5 nM.
Take `COc1ncc(-c2cnc3nc(N)nc(C)c3c2)cc1NS(=O)(=O)c1ccc(C#N)cc1`: the IC50 worked out at 2.82 nM in data set [1], 2440 nM in data set [4], 9150 nM in data set [5] and 45.8 nM in data set [2]. For the same compound, in data set [3], the Papp A→B at 1.5 h, 10 µM was 1.04 ×10⁻⁶ cm/s. Besides, the efflux ratio in data set [7] is 13.5. Besides, the Papp B→A at 1.5 h, 10 µM in data set [6] is 14 ×10⁻⁶ cm/s.
As for `COc1ncc(-c2cnc3nc(N)nc(C)c3c2)cc1F`, in data set [1], the half-maximal inhibitory concentration (IC50) turned out to be 117 nM.
The same measure, in the same setting: the same measure for `COc1ncc(-c2cnc3nc(N)nc(C)c3c2)cc1NS(C)(=O)=O`: 145 nM; for `COc1ncc(-c2cnc3nc(N)nc(C)c3c2)cn1`: 218 nM; for `COc1ccc(-c2cnc3nc(N)nc(C)c3c2)cn1`: 414 nM.
Turning to `COc1ncc(-c2cnc3nc(N)nc(C)c3c2)cc1NS(=O)(=O)c1ccc(C(F)(F)F)cc1`, the IC50 turned out to be 8.41 nM in data set [1] and 67 nM in data set [2].
Regarding `COc1ncc(-c2cnc3nc(N)nc(C)c3c2)cc1NC(=O)c1ccc(F)cc1F`, in data set [1], the IC50 is > 1000 nM.

The record behind these values is ChEMBL document CHEMBL3351642, “Synthesis and structure-activity relationships of PI3K/mTOR dual inhibitors from a series of 2-amino-4-methylpyrido[2,3-d]pyrimidine derivatives” (Bioorg Med Chem Lett, 2014).
